Experimental data reported in publication PMC5750218, “Protein-inspired antibiotics active against vancomycin- and daptomycin-resistant bacteria” (Nature Communications, 2018).
Converted amounts (≈) assume the structure as drawn.

Tests used:
[1] = system: S. aureus (MRSA) ATCC 43300; assay: Resistance frequency assay; assay type: cell-based; details: Staphylococcus aureus; TSB 1% agarose, 0.002% Tween 80; read-out: Agarose plate MIC
Experimental: The resistance frequency for Compound 19 was determined following literature procedures[41], [42].
Compound 19 was prepared to 160 µg mL^−1 solution in water from the given stock solution of 1 mM concentration. Vancomycin was prepared to 1.28 mg mL^−1 solution in water.
Tryptic soy broth (TSB) with 1% agarose and 0.002% Tween 80 was maintained at 45 to 50 °C in a water bath. 160 mL of agarose was transferred to 200 mL glass bottle, maintaining the remaining agarose in the water bath. […] A volume of 80 mL of agarose sample [A] was plated in four petri plates (duplicates/condition—neat, 10^−1) with swirling to ensure that the bottom of the plate was coated equally. An additional 80 mL of fresh agarose was added to the remaining 80 mL of agarose [A] sample to achieve a twofold dilution to provide agarose sample [B]. Once again, 80 mL of agarose sample [B] was plated in four petri plates. […]
Bacteria were subcultured at 37 °C overnight with shaking at 220 rpm. […] Resultant separated visible colonies were counted; those colonies that grow together were not included to determine the titre of the culture. […]
The colonies were counted after 24 h. The resistance frequency is determined by dividing the number of colonies obtained on the plates containing the antibacterial agent by the number of cells plated.

MRSA (Strain ATCC 43300) = assay: MRSA thigh infection in vivo efficacy model (neutropenic mice); set-up: species or system Staphylococcus aureus; details: single 25 mg kg^−1 SC dose
Experimental: Thighs were then removed, weighed and homogenised in a fixed volume of saline.
Untreated animals received equivalent volume of saline (Baxter). […] For each mouse, both thighs were collected aseptically by cutting the leg at the hip and knee, placed in 10 mL of cold sterile saline and the individual weight of each thigh recorded.

[2] = system: S. pneumoniae (ATCC 6301); assay: S. pneumoniae lung infection in vivo efficacy model (mice); set-up: species or system Streptococcus pneumoniae; details: 25 mg kg^−1 SC qd, 10 days
Experimental: The study objective was to evaluate the antimicrobial activity of test articles in a lung infection model with S. pneumoniae (ATCC® 6301™). Male ICR mice were inoculated intratracheally (IT) with S. pneumoniae at an inoculum size of 2.96 × 10^6 CFU per mouse (20 µL per mouse). […] The reference standard, vancomycin 1, was dosed at 25 mg kg^−1 qd SC at 2 h after IT inoculation. […] An increase in survival rate of 50 percent or more ( ≥ 50%) of the treated animals relative to the vehicle group indicates significant antimicrobial activity.
Test substances at 25 mg kg^−1 were each administered subcutaneously (SC) to test animals 2 h after inoculation. The dosing volume was 10 mL kg^−1.
Vehicle (10 mL kg^−1), vancomycin and test substances at 25 mg kg^−1 were each administered subcutaneously 2 h post-infection. Mortality was recorded daily for 10 days following inoculation. Increase of 50 percent or more (≥ 50%) in survival rate relative to the vehicle control group indicates significant anti-infective activity.

HepG2 cells = assay: Cytotoxicity MTT assay; assay type: cell-based, human
MRSA = MRSA in 50% human serum / 50% MHB
Experimental: The compounds, along with standard antibiotics were serially diluted twofold across the wells of 96-well non-binding surface (NBS) polystyrene plates (Corning 3641). […] Standards ranged from 64 to 0.03 µg mL^−1 and compounds from 8 to 0.003 µg mL^−1 with final assay volumes of 100 µL per well. Gram-positive bacteria were cultured in Mueller Hinton broth (MHB) (Bactolaboratories, Cat. no. 211443) at 37 °C overnight. A sample of each culture was then diluted 40-fold in fresh MHB and incubated at 37 °C for 2–3 h. […] All the plates were covered and incubated at 37 °C for 24 h. MICs were the lowest concentration showing no visible growth.
The compounds, along with standard antibiotics, tested in BMD-MIC assay as above, in the presence of a mixture of 50% human serum (Sigma-Aldrich) and 50% MHB.

MRSA (ATCC 43300) = details: 20 days, increasing sub-lethal concentrations
Experimental: A resistance induction assay was conducted for vancomycin, daptomycin, compound 17 and compound 24 [43].
S. aureus ATCC®43300™ was grown in Mueller Hinton broth supplemented with 50 µg mL^−1 of CaCl2. The bacterial culture was incubated at 37 °C in a shaker at 195 rpm.
The mid log S. aureus growth culture was serially diluted and plated on a solid LB agar plates in quadruplicates and incubated at 37 °C overnight to determine viable colony count.
The initial determination of the compound MICs were taken from the literature and empirically measured. […] The plate was then incubated at 37 °C overnight.
After overnight incubation, the growth of the S. aureus (MRSA) culture was determined by reading at OD600 on the Epoch microplate spectrophotometer and 0.1 OD600 was the chosen cut-off determining growth vs. no growth.

[3] = SPR membrane binding assay; details: L1 chip, DMPC / DMPG bilayers
Experimental: SPR experiments were performed using a BIAcore 3000 (GE Health) instrument with a Biacore vesicle capture L1 sensor chip. […] Small unilamellar vesicles (SUV) were prepared in phosphate buffered saline (PBS) (pH 7.4) by sonication and extrusion. […] PBS was then added into each flask to give a suspension, which was sonicated for 5 cycles of 5 min each. […] The SUVs were injected across the L1 sensor chip for 30 min at a flow rate of […] to form a supported lipid bilayer. The coverage of the lipid bilayer was determined from the extent of non-specific binding of bovine serum albumin (0.1 mg mL^-1 in PBS, 5 min injection). A series of concentrations of vancomycin and […] passed sequentially over the different phospholipid-containing flow cells at a flow rate of 30 μL min^-1 for 180 s. The amount of antibiotic bound at equilibrium just before the end of the injection was corrected by subtraction of the bulk-refractive index difference observed at the beginning and the end of each injection. After each injection cycle, the lipid surface was regenerated with 20 mM 3-[(3-cholamidopropyl)dimethylammonio]-1-propanesulfonate (CHAPS) and a fresh lipid bilayer was loaded as described above. All assays were carried out at 25 °C in triplicate. […]

[4] = Critical micelle concentration assay; assay type: physicochemical; details: 0.2 M NaCl, DPH
Experimental: CMCs were determined as previously described[46] with a higher throughput modification. Briefly, a cascade dilution of each antibiotic was performed in a low binding polypropylene V-bottom shaped 96-well plates in the presence of 0.2 M NaCl solution across 12 concentrations ranging from 1000 to 0.1 μM, except the control melittin (100 to 0.01 μM). An identical cascade dilution was performed for the neutral detergent Triton X-100 and the anionic detergent sodium dodecyl sulphate (SDS) starting from 0.1% down to 0.00001% (vol:vol for Triton X-100 and wt:vol for SDS). An aliquot of […] (DPH) in DMSO was added in each well to yield the final DPH concentration of 5 μM. The reaction mixtures were mixed for 30 s and transferred in horizontal triplicate (25 μL per well) into a black falcon 384-well plate. The 384-well plate was then sealed, wrapped up in aluminium foil and incubated for 30 min at room temperature. The fluorescence intensity was monitored in real time using a BMG Labtech PolarStar Omega multimode reader fitted with 360-10 and 430-10 excitation and emission filters respectively, at an excitation wavelength of 360 nm and an emission wavelength of 430 nm.

## CN[C@H](CC(C)C)C(=O)N[C@H]1C(=O)N[C@@H](CC(N)=O)C(=O)N[C@H]2C(=O)N[C@H]3C(=O)N[C@H](C(=O)N[C@H](C(=O)O)c4cc(O)cc(O)c4-c4cc3ccc4O)[C@H](O)c3ccc(c(Cl)c3)Oc3cc2cc(c3O[C@@H]2O[C@H](CO)[C@@H](O)[C@H](O)[C@H]2O[C@H]2C[C@](C)(N)[C@H](O)[C@H](C)O2)Oc2ccc(cc2Cl)[C@H]1O [Compound 1, Vancomycin]
[1]
  MIC: 1 µg/mL (≈ 0.69 µM)
MRSA (Strain ATCC 43300)
  Efficacy in thigh infection model: almost inactive
[2]
  survival rate relative to the vehicle control: ≥ 50%

## CN[C@H]1C(=O)N[C@@H]2Cc3ccc(cc3)Oc3cc4cc(c3O[C@@H]3O[C@H](C(=O)O)[C@@H](O)[C@H](O)[C@H]3NC(=O)CCCCCCCCC(C)C)Oc3ccc(cc3Cl)[C@@H](O)[C@@H]3NC(=O)[C@H](NC(=O)[C@@H]4NC(=O)[C@@H](NC2=O)c2cc(cc(O)c2Cl)Oc2cc1ccc2O)c1ccc(O)c(c1)-c1c(O[C@H]2O[C@H](CO)[C@@H](O)[C@H](O)[C@@H]2O)cc(O)cc1[C@@H](C(=O)NCCCN(C)C)NC3=O [Compound 3, Dalbavancin]
HepG2 cells
  CC50: 259 µM
MRSA
  MIC +50% HS: 8 µg/mL (≈ 4.4 µM)

## CCCCCCCCCCCCCC(=O)N[C@@H](CCCCN)C(=O)N[C@@H](CCCCN)C(=O)N[C@@H](CCCCN)C(=O)N[C@@H](CCCCNC(=O)[C@H]1NC(=O)[C@H]2NC(=O)[C@H](NC(=O)[C@@H]3NC(=O)[C@H](CC(N)=O)NC(=O)[C@H](NC(=O)[C@@H](CC(C)C)NC)[C@H](O)c4ccc(c(Cl)c4)Oc4cc3cc(c4O[C@@H]3O[C@H](CO)[C@@H](O)[C@H](O)[C@H]3O[C@H]3C[C@](C)(N)[C@H](O)[C@H](C)O3)Oc3ccc(cc3Cl)[C@H]2O)c2ccc(O)c(c2)-c2c(O)cc(O)cc21)C(=O)O [Compound 17, nC13CO-KKK-K(Vancomycin)-OH]
MRSA (ATCC 43300)
  Induced resistance on serial culture: low levels of resistance compared to daptomycin
[3]
  Membrane association by SPR compared to vancomycin: Increased membrane association
[4]
  critical micelle concentration (CMC): exceed 100 µM
